Legend:
BON cells [1] = experiment: Guava Nexin apoptosis assay (Annexin V / 7-AAD); format: cell-based, human; conditions: 6 hours after treatment with staurosporin, % of Total
Method: Cells were then switched to growth media without FBS and allowed to grow for another 24 hours before applying treatments. Samples were collected and counted in accordance with Guava Technologies' Viacount Flex (Cat#4500-0110) instructions. At the end of each antibody treatment, cells were dissociated from the plate using 1× trypsin-EDTA (Invitrogen Cat#2520). […] Next, phosphate buffer solution (D-PBS) (Invitrogen Cat#14190-144) (Invitrogen) was used as the exchange buffer to resuspend the cell pellet. […] Detection was achieved by using Guava PCA96 instrument and data was analysed by using Guava Nexin software module as (Cat#0500-0250). […] Following the protocol for the Guava Nexin™ assay (Guava Technologies), two different dyes were used to stain for cells undergoing apoptosis: 7-AAD stains for dead and late apoptosis cells (upper right quadrant of each graph in FIG. 10), and Annexin V stains for cells undergoing apoptosis from the early stage (lower right quadrant of each graph in FIG. 10). […] Once every 24 hours for 72 hours (FIGS. 10B, 10C and 10D), cells were collected and tested for apoptosis status using the Guava Nexin™ assay (Guava Technologies).

BON cells [2] = experiment: Guava Nexin apoptosis assay (Annexin V / 7-AAD); format: cell-based, human; conditions: 6 hours after treatment with staurosporin, % of Total; remark: listed apart in the source

SMILES: CN[C@@H]1C[C@H]2O[C@@](C)([C@@H]1OC)n1c3ccccc3c3c4c(c5c6ccccc6n2c5c31)C(=O)NC4 [Staurosporine]
- Early apoptotic cells (Lower Right Quadrant) (BON cells [1]): 28.7%
- Late apoptotic cells (Upper Right Quadrant) (BON cells [1]): 23.7%
- Live, healthy cells (Lower Left Quadrant) (BON cells [1]): 46.7%
- Annexin V+ (BON cells [2]): 52.3%
- Nuclear Debris (Upper Left Quadrant) (BON cells [2]): 1.0%

— US20090016989A1, “ANTIBODIES TO HUMAN SOMATOSTATIN RECEPTOR AND METHODS OF USE” (priority 2007, published 2009)
